From patent US20240294489A1 (Captor Therapeutics S.A., priority 2020, published 2024)
Where two headings read alike, the source gives them in different places. Values belong to the compound of their own block, whether it stands above or below them.

Key:
Assay type in all cases: cell-based
NCI-H929 = assay: Cell viability, additional cell lines (CellTiter-Glo), NCI-H929; conditions: Homo sapiens, NCI-H929, 72 h; read-out: Absolute IC50
Protocol: (§1) Tumor cells are grown at 37° C. in a humidified atmosphere with 5% CO2 in RPMI 1640 medium, supplemented with 10% (v/v) fetal calf serum and 50 μg/ml gentamicin for up to 20 passages, and are passaged once or twice weekly.
(§2) Cells are harvested from exponential phase cultures, counted and plated in 96 well flat-bottom microtiter plates at a cell density depending on the cell line's growth rate (4,000-20,000 cells/well depending on the cell line's growth rate, up to 60,000 for hematological cancer cell lines) in RPMI 1640 medium supplemented with 10% (v/v) fetal calf serum and 50 μg/ml gentamicin (140 μl/well). Cultures are incubated at 37° C. and 5% CO2 in a humidified atmosphere. After 24 h, 10 μl of test compounds or control medium are added and left on the cells for another 72 h. Compounds are serially diluted in DMSO, transferred in cell culture medium, and added to the assay plates by using a Tecan Freedom EVO 200 robotic platform. The DMSO concentration is kept constant at 0.3% v/v across the assay plate. Viability of cells is quantified by the CellTiter-Glo® cell viability assay (Promega G8462). After incubation of cells, 100 μl of CellTiter-Glo® One Solution Assay reagent are added to each well. Plates are shaken for 2 minutes to induce cell lysis and incubated for 20 minutes prior to reading luminescence (LU) by using the EnVision® Xcite multilabel plate reader (Perkin Elmer). […]

PL-21 = assay: Cell viability, additional cell lines (CellTiter-Glo), PL-21; conditions: PL-21, 72 h; read-out: Absolute IC50
Protocol: as §1, §2

OCI-AML2 = assay: Cell viability, additional cell lines (CellTiter-Glo), OCI-AML2; conditions: Homo sapiens, OCI-AML2, 72 h; read-out: Absolute IC50
Protocol: as §1, §2

HL-60 = assay: Cell viability, additional cell lines (CellTiter-Glo), HL-60; conditions: Homo sapiens, HL-60, 72 h; read-out: Absolute IC50
Protocol: as §1, §2

IM-9 = assay: Cell viability, additional cell lines (CellTiter-Glo), IM-9; conditions: Homo sapiens, IM-9, 72 h; read-out: Absolute IC50
Protocol: as §1, §2

SU-DHL-1 = assay: Cell viability, additional cell lines (CellTiter-Glo), SU-DHL-1; conditions: Homo sapiens, SU-DHL-1, 72 h; read-out: Absolute IC50
Protocol: as §1, §2

TMD8 = assay: Cell viability, additional cell lines (CellTiter-Glo), TMD8; conditions: Homo sapiens, TMD8, 72 h; read-out: Absolute IC50
Protocol: as §1, §2

NOMO-1 = assay: Cell viability, additional cell lines (CellTiter-Glo), NOMO-1; conditions: Homo sapiens, NOMO-1, 72 h; read-out: Absolute IC50
Protocol: as §1, §2

EOL-1 = assay: Cell viability, additional cell lines (CellTiter-Glo), EOL-1; conditions: Homo sapiens, EOL1; EOL-1, 72 h; read-out: Absolute IC50
Protocol: as §1, §2

Kasumi-1 = assay: Cell viability, additional cell lines (CellTiter-Glo), Kasumi-1; conditions: Homo sapiens; Kasumi-1, 72 h; read-out: Absolute IC50
Protocol: as §1, §2

OPM-2 = assay: Cell viability, additional cell lines (CellTiter-Glo), OPM-2; conditions: Homo sapiens, OPM-2, 72 h; read-out: Absolute IC50
Protocol: as §1, §2

SNU-398 cells = assay: Cell viability CTG assay, SNU-398; conditions: Homo sapiens; SNU-398, 72 h, 0.001-50 μM, FIG. 6C
Protocol: (§3) The effect of various compounds of the invention and various reference compounds on cell viability in various cell lines was investigated, using the Cell Viability—CTG Assay Protocol below. Hep3B, Kelly, H929, KG-1 and SNU-398 cells were maintained in respective cell medium (see Table 8, below). The cells were seeded on the 96-well or 384-white plates, and the compounds to be tested were added at the desired concentration range. Compounds are diluted in DMSO, and the DMSO concentration is kept constant at 0.25% v/v across the assay plate. After 72 h incubation (37° C., 5% CO2), CellTiter-Glo® Reagent (Promega/G7570) was added to the wells. Plates are shaken for 4 minutes and incubated for 8 minutes in the dark prior to reading luminescence (LU) by using the CLARIOstar Multimode Plate Reader. The signal is proportional to the amount of ATP, which is directly proportional to the number of cells present in the culture.
(§4) Luminescence (RLU) values were normalized to DMSO control. Dose response is assessed by non-linear regression and IC50 calculation with the average of technical duplicate of percentage inhibition. IC50 values are reported as absolute IC50 values, being the concentration of test compound at the intersection of the concentration-response curves with T/C=50%. For calculation of mean IC50 values the geometric mean is used.

LP-1 = assay: Cell viability, additional cell lines (CellTiter-Glo), LP-1; conditions: Homo sapiens, LP-1, 72 h; read-out: Absolute IC50
Protocol: as §1, §2

U-266 = assay: Cell viability, additional cell lines (CellTiter-Glo), U-266; conditions: Homo sapiens, U-266, 72 h; read-out: Absolute IC50
Protocol: as §1, §2

U-937 = assay: Cell viability, additional cell lines (CellTiter-Glo), U-937; conditions: Homo sapiens, U-937, 72 h; read-out: Absolute IC50
Protocol: as §1, §2

Ikaros (IKZF1) = target: T1, Ikaros (IKZF1) (Homo sapiens, UniProt Q13422+Q96SW2); assay: Ikaros degradation assay, H929 cell line; conditions: NCI-H929, H929 cells, 10 uM, 24 h, read-out: % of IKZF1 protein reduction
T1 construct: Ikaros degradation in the H929 cell line was investigated; endogenous in cells; host or cells: H929
T1 sequence (Q13422 whole entry): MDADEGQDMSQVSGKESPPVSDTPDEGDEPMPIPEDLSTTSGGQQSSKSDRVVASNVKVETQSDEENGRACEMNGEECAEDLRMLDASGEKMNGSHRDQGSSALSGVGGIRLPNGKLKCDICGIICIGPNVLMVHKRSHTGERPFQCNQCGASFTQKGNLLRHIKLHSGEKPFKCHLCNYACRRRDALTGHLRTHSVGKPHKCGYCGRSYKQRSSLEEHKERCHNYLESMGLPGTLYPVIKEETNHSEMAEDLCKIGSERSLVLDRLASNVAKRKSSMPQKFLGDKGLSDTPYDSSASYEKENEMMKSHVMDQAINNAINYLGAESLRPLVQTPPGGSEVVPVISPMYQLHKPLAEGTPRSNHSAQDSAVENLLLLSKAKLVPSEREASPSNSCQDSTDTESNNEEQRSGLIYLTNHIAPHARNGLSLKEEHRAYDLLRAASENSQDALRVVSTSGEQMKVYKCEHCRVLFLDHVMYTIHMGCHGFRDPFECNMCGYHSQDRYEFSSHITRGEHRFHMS
T1 sequence (Q96SW2 whole entry): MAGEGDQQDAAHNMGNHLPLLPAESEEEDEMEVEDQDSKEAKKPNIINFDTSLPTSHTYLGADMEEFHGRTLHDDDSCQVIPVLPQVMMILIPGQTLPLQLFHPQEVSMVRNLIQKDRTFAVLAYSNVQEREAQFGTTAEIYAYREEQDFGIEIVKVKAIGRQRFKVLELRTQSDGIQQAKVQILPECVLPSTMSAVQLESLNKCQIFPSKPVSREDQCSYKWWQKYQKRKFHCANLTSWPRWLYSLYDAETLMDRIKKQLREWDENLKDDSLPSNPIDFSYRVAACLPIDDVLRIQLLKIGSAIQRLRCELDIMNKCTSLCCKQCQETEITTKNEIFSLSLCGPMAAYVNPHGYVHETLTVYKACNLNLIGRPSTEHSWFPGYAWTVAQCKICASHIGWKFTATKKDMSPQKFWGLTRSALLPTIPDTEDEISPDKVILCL
T1 sequence (Q16531 whole entry partner): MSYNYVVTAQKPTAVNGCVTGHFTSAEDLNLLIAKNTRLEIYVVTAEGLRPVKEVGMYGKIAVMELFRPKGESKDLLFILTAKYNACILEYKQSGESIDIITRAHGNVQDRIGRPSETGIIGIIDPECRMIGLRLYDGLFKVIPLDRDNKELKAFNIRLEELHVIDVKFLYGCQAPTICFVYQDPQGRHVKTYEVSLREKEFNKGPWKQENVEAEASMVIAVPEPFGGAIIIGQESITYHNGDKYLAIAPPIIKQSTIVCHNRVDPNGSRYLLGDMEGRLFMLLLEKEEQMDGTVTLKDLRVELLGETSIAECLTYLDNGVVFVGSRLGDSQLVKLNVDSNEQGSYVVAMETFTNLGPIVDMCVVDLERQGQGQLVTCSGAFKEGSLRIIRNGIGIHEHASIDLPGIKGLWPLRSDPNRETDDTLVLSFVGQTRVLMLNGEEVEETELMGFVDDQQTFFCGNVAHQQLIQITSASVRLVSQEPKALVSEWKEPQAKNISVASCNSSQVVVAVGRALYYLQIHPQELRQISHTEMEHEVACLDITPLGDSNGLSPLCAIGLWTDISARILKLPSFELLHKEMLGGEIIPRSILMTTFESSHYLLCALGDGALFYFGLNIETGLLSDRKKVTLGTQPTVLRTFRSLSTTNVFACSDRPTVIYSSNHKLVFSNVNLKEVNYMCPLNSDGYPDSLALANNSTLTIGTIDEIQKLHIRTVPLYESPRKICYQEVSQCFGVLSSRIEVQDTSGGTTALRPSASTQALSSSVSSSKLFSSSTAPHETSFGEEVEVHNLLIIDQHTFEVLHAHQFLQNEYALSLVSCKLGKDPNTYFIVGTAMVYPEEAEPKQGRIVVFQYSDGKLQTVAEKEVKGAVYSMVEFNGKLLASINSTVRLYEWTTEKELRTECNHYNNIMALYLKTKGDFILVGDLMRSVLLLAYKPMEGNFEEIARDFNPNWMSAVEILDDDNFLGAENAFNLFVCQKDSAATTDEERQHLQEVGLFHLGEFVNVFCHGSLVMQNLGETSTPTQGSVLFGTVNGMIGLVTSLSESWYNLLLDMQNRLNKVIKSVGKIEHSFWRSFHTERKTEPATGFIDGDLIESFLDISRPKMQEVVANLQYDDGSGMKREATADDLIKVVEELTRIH
Protocol: (§5) Cells were seeded on 6- or 12-well plates, and the compounds to be tested were added at the desired concentration range. […] After 24 h incubation (37° C., 5% CO2), cells were harvested, washed and cell lysates were prepared using RIPA lysis buffer. The amount of protein was determined via BCA assay, and the appropriate quantity was then loaded on the precast gel for the protein separation. After primary and secondary Ab staining, the membranes were washed and signals developed. The densitometry analysis was implemented to obtain the numeric values used later in the protein level evaluation process.

H929 cells = assay: Cell viability CTG assay, H929; set-up: key to Geomean absolute IC50 by molecule, 72 H: Inactive represents IC50 > 50 μM; C represents 50 μM ≥ IC50 > 5 μM; conditions: H929, 72 h, 0.001-50 μM; for IC50: Homo sapiens, NCI-H929, numeric values, read-out: Geomean absolute IC50 by molecule, 72 H
Protocol: as §3, §4

Kelly cells [1] = assay: Cell survival clonogenic assay, Kelly; conditions: 0.1-10 μM, crystal violet staining after 9-10 days
Protocol: (§6) To determine the ability of a single cell to form a colony (defined as a cluster of at least 50 cells), Kelly and Hep3B cells were maintained in RPM11640 (Kelly) or EMEM (Hep3B) medium, supplemented with penicillin/streptomycin and 10% FBS. The cells were counted and seeded on the 6-well plates, at the density of 1×10^3 cells per well, the compounds to be tested were added at the desired concentration range, and the cells were cultured at 37° C./5% CO2. After colony formation (9-10 days), the cells were washed and treated with 6.0% glutaraldehyde and 0.5% crystal violet mix for 30 min., followed by rinsing with water and drying at room temperature (RT).

Hep3B cells [2] = assay: Cell survival clonogenic assay, Hep3B; conditions: 0.1-10 μM, crystal violet staining after 9-10 days
Protocol: as §6

SALL4 [3] = target: T2, SALL4 (Homo sapiens, UniProt Q96SW2+Q9UJQ4); assay: SALL4 degradation assay, Kelly cell line (Western blot densitometry); conditions: Kelly cells, 100 nM, 24 h, average from n ≥ 2 experiments
T2 construct: SALL4 degradation in the Kelly cell line was investigated; endogenous in cells; host or cells: Kelly
T2 sequence (Q9UJQ4 whole entry): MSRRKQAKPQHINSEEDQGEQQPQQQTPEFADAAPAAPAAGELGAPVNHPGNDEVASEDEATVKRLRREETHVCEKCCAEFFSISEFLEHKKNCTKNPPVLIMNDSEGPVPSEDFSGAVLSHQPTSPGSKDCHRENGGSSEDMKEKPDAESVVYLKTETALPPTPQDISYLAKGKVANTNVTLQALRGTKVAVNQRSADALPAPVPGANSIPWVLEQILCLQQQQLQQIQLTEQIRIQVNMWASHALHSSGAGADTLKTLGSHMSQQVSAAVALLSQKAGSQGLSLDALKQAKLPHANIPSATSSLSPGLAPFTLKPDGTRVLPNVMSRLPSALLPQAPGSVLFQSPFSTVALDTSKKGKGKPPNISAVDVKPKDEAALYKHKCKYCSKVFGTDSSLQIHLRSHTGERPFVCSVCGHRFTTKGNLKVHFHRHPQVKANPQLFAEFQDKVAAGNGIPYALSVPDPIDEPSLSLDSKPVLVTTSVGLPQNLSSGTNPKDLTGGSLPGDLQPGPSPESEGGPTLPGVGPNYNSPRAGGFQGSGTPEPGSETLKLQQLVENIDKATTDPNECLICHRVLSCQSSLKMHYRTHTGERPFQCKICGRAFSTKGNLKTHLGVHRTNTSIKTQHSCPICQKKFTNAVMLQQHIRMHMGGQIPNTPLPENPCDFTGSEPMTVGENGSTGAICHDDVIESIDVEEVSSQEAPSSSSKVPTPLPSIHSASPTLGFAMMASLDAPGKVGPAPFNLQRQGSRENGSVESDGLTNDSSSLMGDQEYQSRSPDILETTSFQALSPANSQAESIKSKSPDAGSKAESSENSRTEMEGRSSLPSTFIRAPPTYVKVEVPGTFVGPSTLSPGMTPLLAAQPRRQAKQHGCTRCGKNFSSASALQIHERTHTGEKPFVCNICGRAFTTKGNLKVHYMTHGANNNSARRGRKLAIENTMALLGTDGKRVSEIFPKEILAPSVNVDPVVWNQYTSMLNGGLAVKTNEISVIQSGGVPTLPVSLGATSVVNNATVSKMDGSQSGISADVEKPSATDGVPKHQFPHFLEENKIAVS
T2 sequence (Q96SW2 whole entry): as the sequence (Q96SW2 whole entry) above
T2 sequence (Q16531 whole entry partner): as the sequence (Q16531 whole entry partner) above
Protocol: as §5

SALL4 [4] = target: T2, SALL4; assay: SALL4 degradation in the Kelly cell line, time course; conditions: Kelly cells, 0.1 μM, 3, 6, 12, 24, 48 and 72 h, FIG. 2
Protocol: (§7) Kelly cells were maintained in RPMI-1640 medium, supplemented with penicillin/streptomycin and 10% Fetal Bovine Serum (FBS). Cells were seeded on 6- or 12-well plates, and the compounds to be tested were added at the desired concentration range. Final DMSO concentration was 0.25%. After incubation (37° C., 5% CO2) for a specified period of time, cells were harvested, washed and cell lysates were prepared using RIPA lysis buffer. The amount of protein was determined via BCA assay, and the appropriate quantity was then loaded on the precast gel for the protein separation. After primary and secondary Ab staining, the membranes were washed and signals developed. The densitometry analysis was implemented to obtain the numeric values used later in the protein level evaluation process.

GSPT1 = target: T3, GSPT1 (Homo sapiens, UniProt P15170+Q96SW2); assay: GSPT1 degradation assay, Hep3B cell line; conditions: HEP3B cells, 24 h, read-out: % of GSPT1 protein reduction
T3 construct: GSPT1 degradation in the Hep3B cell line was investigated; endogenous in cells; host or cells: Hep3B
T3 sequence (P15170 whole entry): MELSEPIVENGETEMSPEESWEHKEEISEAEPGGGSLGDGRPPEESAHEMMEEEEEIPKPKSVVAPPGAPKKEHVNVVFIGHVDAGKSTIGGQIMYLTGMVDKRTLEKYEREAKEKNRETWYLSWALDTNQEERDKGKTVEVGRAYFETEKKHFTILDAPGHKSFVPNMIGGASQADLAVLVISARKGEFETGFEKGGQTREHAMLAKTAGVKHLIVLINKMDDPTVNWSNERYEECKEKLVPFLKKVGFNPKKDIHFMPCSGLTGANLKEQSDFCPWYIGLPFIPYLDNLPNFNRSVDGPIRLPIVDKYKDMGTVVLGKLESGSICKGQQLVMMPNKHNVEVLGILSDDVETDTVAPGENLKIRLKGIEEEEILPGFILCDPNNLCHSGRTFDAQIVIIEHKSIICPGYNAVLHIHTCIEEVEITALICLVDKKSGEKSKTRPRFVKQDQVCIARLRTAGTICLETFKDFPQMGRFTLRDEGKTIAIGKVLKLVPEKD
T3 sequence (Q96SW2 whole entry): as the sequence (Q96SW2 whole entry) above
T3 sequence (Q16531 whole entry partner): as the sequence (Q16531 whole entry partner) above
Protocol: as §7, with “Hep3B cells were” for “Kelly cells were”, “maintained in EMEM medium, supplemented” for “maintained in RPMI-1640 medium, supplemented”, “0.25%. After 24 h incubation (37°” for “0.25%. After incubation (37°”, “C., 5% CO2), cells were” for “C., 5% CO2) for a specified period of time, cells were”, “evaluation process. Densitometry values were normalized to the loading control and calculated as [%] of the DMSO control.” for “evaluation process.”

KG-1 cells = assay: Cell viability CTG assay, KG-1; conditions: Homo sapiens; KG-1, 72 h, 0.001-50 μM; read-out: KG-1 Geomean absolute IC50 by molecule, 72 H
Protocol: as §3, §4

Hep3B cells [5] = assay: Cell viability CTG assay, Hep3B; conditions: Homo sapiens, 72 h, 0.001-50 μM, read-out: Hep3B Geomean absolute IC50 by molecule, 72 H
Protocol: as §3, §4

Kelly cells [6] = assay: Cell viability CTG assay, Kelly; conditions: 72 h, 0.001-50 μM, read-out: Kelly Geomean absolute IC50 by molecule, 72 H
Protocol: as §3, §4

Compound: O=C1CCC(N2Cc3cc(CNC(=O)C(F)(F)c4ccc(Cl)cc4)ccc3C2=O)C(=O)N1 (stereo not shown) [CC-90009, reference compound]
IC50 (NCI-H929): 399 nM
IC50 (PL-21): 10 nM
IC50 (OCI-AML2): 18 nM
IC50 (HL-60): 3 nM
IC50 (IM-9): 85 nM
IC50 (SU-DHL-1): 153 nM
IC50 (TMD8): 264 nM
IC50 (NOMO-1): 40 nM
IC50 (EOL-1): 2 nM
IC50 (Kasumi-1): 35 nM
IC50 (OPM-2): 74 nM
IC50 (SNU-398 cells): > 9900 nM
IC50 (LP-1): 28 nM
IC50 (U-266): 56 nM
IC50 (U-937): 78 nM
inhibition at 10 µM (Ikaros (IKZF1); numeric values): 33%
IC50 (H929 cells): 189 nM

Compound: Nc1cccc2c1CN(C1CCC(=O)NC1=O)C2=O (stereo not shown) [Lenalidomide, lenalidomide, reference compound]
survival of the cells (colony formation) (Kelly cells [1]): no activity
survival of the cells (colony formation) (Hep3B cells [2]): no activity
IC50 (H929 cells): 433 nM

% of SALL4 protein reduction (SALL4 [3]): >80%
inhibition at 10 µM (Ikaros (IKZF1)): 0 to 24%
inhibition at 1 µM (GSPT1; 1 uM): 50 to 79%
Compound: Nc1c(O)ccc2c1C(=O)N(C1CCC(=O)NC1=O)C2=O (stereo not shown) [Compound 44, 4-amino-2-(2,6-dioxopiperidin-3-yl)-5-hydroxyisoindoline-1,3-dione]
SALL4 degradation time course (SALL4 [4]): more rapidly and effectively than lenalidomide

IC50 (Hep3B cells [5]): ≤ 100 nM
IC50 (SNU-398 cells): 82 nM
inhibition at 10 µM (Ikaros (IKZF1)): 0 to 24%
Geomean absolute IC50 by molecule, 72 H (H929 cells): Inactive
inhibition at 10 µM (GSPT1; 10 uM): 80 to 100%
Compound: NCc1cc2c(cc1F)C(=O)N(C1CCC(=O)NC1=O)C2 (stereo not shown) [Compound 3, 3-[5-(aminomethyl)-6-fluoro-1-oxo-2,3-dihydro-1H-isoindol-2-yl]piperidine-2,6-dione]
IC50 (KG-1 cells): ≤ 100 nM
IC50 (Kelly cells [6]): ≤ 100 nM
